Measured values: ChEMBL document CHEMBL3727353, “Small-molecule choline kinase inhibitors as anti-cancer therapeutics” (2011)

Legend:
[1] = Clearance in Balbc mouse at 5 mg/kg, iv by LC-MS/MS analysis; type: ADME, organism-based; conditions: BALB/c, in vivo
[2] = AUC (0 to infinity) in Balbc mouse at 5 mg/kg, iv by LC-MS/MS analysis; type: ADME, organism-based; parameters: dose 5 mg/kg, time infinity, route intravenous; conditions: BALB/c, in vivo
[3] = Terminal half life in Balbc mouse at 5 mg/kg, iv by LC-MS/MS analysis; type: ADME, organism-based; conditions: BALB/c, in vivo, read-out: beta t1/2 (converted)
[4] = system: K562; assay: Antiproliferative activity against human K562 cells after 72 hrs by alamar blue assay; type: functional, cell-based; conditions: K562, 72 h
[5] = system: MDA-MB-231; assay: Antiproliferative activity against human MDA-MB-231 cells after 72 hrs by alamar blue assay; type: functional, cell-based; conditions: MDA-MB-231, 72 h

clearance [1] [mL/min/kg] | AUC(0-inf) [2] [ng·h/mL] | half-life [3] [min] | IC50 [4] [µM] | IC50 [5] [µM] | Structure (SMILES)
129 | 1290 | 9 |  |  | CCOc1ccc(-c2nnc(SCC(=O)Nc3cc(C)cc(C)c3)[nH]2)cc1F
 |  |  | 37 | 78.7 | COc1ccc(-c2nnc(SCC(=O)Nc3ccc(F)cc3F)[nH]2)cc1
